Reference: PMC5011490, “Effect of Tris, MOPS, and phosphate buffers on the hydrolysis of polyethylene terephthalate films by polyester hydrolases” (FEBS Open Bio, 2016)

Target: T1, TfCut2 (Thermobifida fusca, UniProt Q6A0I4)
T1 construct: gene cut2; gene without signal peptide from T. fusca KW3 genomic DNA, pET-20b(+) with pelB leader and His6 tag, E. coli BL21(DE3), purified
Assay: PET film hydrolysis, released products by RP-HPLC; Lineweaver-Burk slope replot
Type: biochemical
Details: amorphous PET film substrate, 0.2 M sodium phosphate pH 8.0, 60 °C, 1 h; MOPS 0.05-0.075 M; competitive
Text: PET film hydrolysis, released products by RP-HPLC; Lineweaver-Burk slope replot on TfCut2

T1 sequence (Q6A0I4 41-301): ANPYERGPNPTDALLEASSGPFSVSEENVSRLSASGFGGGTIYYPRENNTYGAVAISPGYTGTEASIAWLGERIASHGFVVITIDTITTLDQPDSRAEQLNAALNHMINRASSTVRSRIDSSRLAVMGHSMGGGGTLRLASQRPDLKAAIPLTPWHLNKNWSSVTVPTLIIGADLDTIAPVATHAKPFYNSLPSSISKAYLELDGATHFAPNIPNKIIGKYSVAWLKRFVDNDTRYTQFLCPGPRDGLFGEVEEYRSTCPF

Ki: 80 mM
Compound: O=S(=O)(O)CCCN1CCOCC1 [MOPS, 3‐(N‐morpholino)propanesulfonic acid]
